Values after ≈ are worked out from the molar mass of the structure shown.
What was measured:
Format in all cases: cell-based, human
PC3 cells = assay: Flow cytometric analysis of cell cycle (propidium iodide) in PC3; details: 10 μM
Method: FIG. 11. Compound I-1 induces cell cycle arrest and apoptosis in PC3 cells. Prostate cancer cells were left untreated (−) or treated with compound I-1 (10 μM) or with vehicle (DMSO) for the time indicated in the figure. (A) For flow cytometric analysis of cell cycle parameters, cells were fixed, and stained with propidium iodide. Each histogram indicates the percent of cells in G1, S, and G2/M phases of the cell cycle. Data were gated to exclude apoptotic cells for these calculations. (B) After treatment, cells were lysed and total lysates were analyzed for cellular apoptotic markers by immunoblotting using anti-PARP-1 or anti-cleaved Caspase-3 antibodies. Anti-GAPDH-1 antibody was used as loading control. (C) Some 48 h-treated PC3 cells were harvest by trypsinization, washed with PBS, and total DNA was extracted then analyzed on a 1.8% agarose gel. M indicates DNA size marker (base pairs).
Flow cytometric assays of cell cycle and cell death. Cells in fresh complete medium were plated (2×10^5 per well) into six-well plates for 18 h. After complete adhesion, cells were treated as indicated in the figures and harvested by trypsinization. […] Cells were then analyzed by flow cytometry using a FACScalibur cytometer (BD Biosciences, Mountain View, Calif.) and FlowJo program (Tree Star, Inc., Ashland, Oreg.).

DU145 cells [1] = assay: Trypan blue exclusion assay (cell death); details: 10 μM, 72 h
Method: FIG. 12. Trypan blue exclusion assay to determine cell death. DU145 prostate cancer cells were left untreated or treated with 10 μM compound I-1 or with vehicle (DMSO) for 72 h. After treatment, all cells (both adherent and floating) were harvested, stained with trypan blue, and counted immediately to determine the percentage of non-viable cells (stained blue). Columns represent the mean of three independent experiments, bars represent standard error, and numbers above each column represent the percentage of blue cells in the sample.
Compound I-1 promotes cell death by apoptosis. Because prolonged cell cycle arrest can cause induction of cell death, we next investigated the viability of prostate cancer cells treated with compound I-1. To begin, we used the trypan blue exclusion assay, which is based on the principle that live cells will exclude membrane-impermeable dyes such as trypan blue, whereas trypan blue will get inside the dead cells and stain them. […] To determine whether apoptosis (programmed cell death) is the cause of cell death induced by compound I-1, we examined the cells for biochemical and morphological markers of apoptosis. […]

DU145 cells [2] = assay: MTT assay (cytotoxicity / cell proliferation) in DU145
Method: FIG. 4. Bioassay of compound I-1, compound I-2, and compound I-3. SPA14-3-2 is pure compound I-2. SPA14-3-3 is pure compound I-3. SPA14-3-4 is pure compound I-1. MTT assays using compound I-1, compound I-2, and compound I-3 against DU145 and RWPE-1 cells lines.
(§1) FIG. 8. Cell proliferation assay. (A) DU145 or PC3 prostate cancer were plated at a density of 1,500 cells per well in 96-well plates and incubated 18 hours at 37° C. to allow adherence. They were untreated or treated by addition of different concentrations of compound I-1 (which were added directly to the medium) or vehicle (DMSO), and proliferation was measured using a 3-(4,5-dimethylthiazol-2-yl)-2,5-diphenyltetrazolium bromide MTT assay after 3 days of treatment. Points, mean of triplicate normalized samples to vehicle sample; bars, SE. (B) GI50 after 3 days of treatment. (C) Prostate cancer cells (DU145 or PC3) or a non-malignant epithelial cells (RWPE-1) were plated at a density of 1,000 cells per well in 96-well plates and incubated 18 hours at 37° C. to allow adherence. They were untreated or treated by addition of different concentrations of compound I-1 (added directly to the medium) or vehicle (DMSO), and proliferation was by MTT assay after 5 days of treatment. Points, mean of triplicate normalized samples to vehicle sample; bars, SE.
Isolation, NMR, and X-ray crystallographic analyses. Leaves, stems, and few fruits of Physalis angulate L (Solanaceae) were collected in Rio Domingusa. Kuith/Barranquita, Amazonas Department, Northeastern Peru, and identified by the team led by Walter Lewis (collection voucher 18597, Ext. 1159). Dried and grounded material (46 g) was extracted with ethanol (1 L, 95%) for 7 days. The evaporated crude extract (6.26 g) was denoted SPA. An aliquot (1.5 g) of SPA was partitioned between dichloromethane (40 mL) and water (40 mL), affording two fractions: organic (SPA1, 500 mg) and aqueous (SPA2, 600 mg). All MTT assays were performed as described in Bates et al. “G-Rich Oligonucleotides for Cancer Treatment” Chapter 21 of Methods in Molecular Biology, Gene Therapy of Cancer, Wolfgang Walther and Ulrike S. Stein (eds.), Vol. 542, 2009, Humana Press. […] SPA14-3 (30 mg) was treated on an HPLC using a reverse phase C18 column eluted in gradient mode of methanol and water (from 80% methanol to 100% methanol) and detected at 254 nm, yielding SPA14-3-1 (0 mg), SPA14-3-2 (1.2 mg of pure compound I-2), SPA14-3-3 (4.1 mg of pure compound I-3), and SPA14-3-4 (18 mg of pure compound I-1).
(§2) General Experimental Procedure. Compound I-1 was isolated as described in Example Set 1, above. For samples of compound I-1 used in Example Set 2, HPLC and NMR indicated a purity of at least 95%. All experiments described in Example Set 2 were repeated at least two or three times. […]

[3] = tested on: Prostate cancer cells (DU145 or PC3) or a non-malignant epithelial cells (RWPE-1); assay: MTT cell proliferation assay, 5 days, cancer versus non-malignant cells; details: after five days of treatment, FIG. 8C
Method: as §1, §2

`C[C@@H]1CC[C@H]2C3C(O[C@]4([C@]5(O)CC6(C)C(=O)OC5C[C@@]6(C)O)CC[C@@]31O4)[C@H]1O[C@]13CC=CC(=O)[C@]23C` (some centres unmarked) [I-1] was tested, and the G2/M arrest (PC3 cells) was “able to cause G2/M arrest”, the “dead cells (trypan blue)” value (DU145 cells [1]) was about 90% and the GI50 (DU145 cells [2]; Homo sapiens, DU-145, MTT assay, FIG. 4, read-out: GI50 against DU145) was about 1.5 µg/mL (≈ 3 µM). For the same compound, the “concentration of maximum antiproliferative activity” value (DU145 cells [2]; after three days of treatment) was 10 µM and the “inhibition of cancer cell growth as compared to non-malignant cell growth” value [3] was “selectivity inhibit cancer cell growth”.

From US9492428B2, “Compounds, compositions, pharmaceutical compositions, and methods of use” (University of Louisville Research Foundation, Inc., priority 2011, dated 2016)
